Experimental data from US20210352895A1, “SYNERGISTIC PESTICIDAL COMPOSITIONS AND METHODS FOR DELIVERY OF ACTIVE INGREDIENTS” (0903608 B.C. Ltd., priority 2018, published 2021).
Read-outs that look alike come from different tables or passages of the source.

Assays:
Fusarium oxysporum = assay: Synergistic Growth Inhibition Assay (MIC / FIC index, resazurin, 96-well) on Fusarium oxysporum; assay type: cell-based; conditions: for MIC: 48 h
Protocol: (§1) In some embodiments, the synergistic action between the pesticidal active ingredient, and the at least one C4-C10 (or alternatively C11 or C12) saturated or unsaturated aliphatic acid components of the pesticidal compositions according to embodiments of the present disclosure was tested using a Synergistic Growth Inhibition Assay, which is derived from and related to a checkerboard assay as is known in the art for testing of combinations of antimicrobial agents. In the Synergistic Growth Inhibition Assay used in accordance with some embodiments of the present disclosure, multiple dilutions of combinations of pesticidal active ingredient and at least one C4-C10 saturated or unsaturated aliphatic acid agents are tested in individual cells for inhibitory activity against a target pest or pathogenic organism. In one such embodiment, the combinations of pesticidal active ingredient and C4-C10 (or alternatively C11 or C12) saturated or unsaturated aliphatic acid agents may preferably be tested in decreasing concentrations. In a further such embodiment, the combinations of pesticidal active ingredient and C4-C10 (or alternatively C11 or C12) saturated or unsaturated aliphatic acid agents may be tested in increasing concentrations. These multiple combinations of the pesticidal active ingredient and at least one C4-C10 (or alternatively C11 or C12) saturated or unsaturated aliphatic acid agents may be prepared in 96-well microtiter plates. In one such embodiment, the Synergistic Growth Inhibition Assay then comprises rows which each contain progressively decreasing concentrations of the pesticidal active ingredient and one or more C4-C10 (or alternatively C11 or C12) saturated or unsaturated aliphatic acid agents to test for the MIC of the agents in combination at which growth of the target pest or pathogen is inhibited. Thus, each well of the microtiter plate is a unique combination of the two agents, at which inhibitory efficacy of the combination against the target pest or pathogen can be determined.
(§2) In one embodiment according to the present disclosure, for each row of microtiter cells in the Synergistic Growth Inhibition Assay, the FIC index is calculated from the lowest concentration of the pesticidal active ingredient and one or more C4-C10 saturated or unsaturated aliphatic acid agents necessary to inhibit growth of a target pest or pathogen. The FIC of each component is derived by dividing the concentration of the agent present in that well of the microtiter plate by the minimal inhibitory concentration (MIC) needed of that agent alone to inhibit growth of the target pest or pathogen. The FIC index is then the sum of these values for both agents in that well of the microtiter plate. The FIC index is calculated for each row as follows:
(§3) FICindex=MICa/MICA+MICb/MICB
(§4) Fractional inhibitory concentration indices may then used as measure of synergy. […] When the FIC index is equal to 1, the combination is additive.
(§5) Then, serial dilutions of these initial compositions in successive wells in the row of the microtiter plate were used to assay the pesticidal composition under the same conditions to determine the concentration of the composition combining the two agents corresponding to the microtiter well in which growth inhibition of the target pest or organism ceases.
Resazurin dye (also known as Alamar blue dye) was used as an indicator to determine the presence of growth or inhibition of growth of Fusarium oxysporum in the wells of the 96 well microtiter plates used in the exemplary Synergistic Growth Inhibition Assay. In addition to the color change of the resazurin dye in the presence of growth of the Fusarium oxysporum, an optical or visual examination of the microtiter well may also be made to additionally determine the presence of growth or inhibition of growth of the Fusarium oxysporum.

Sclerotinia sclerotiorum = assay: Synergistic Growth Inhibition Assay (MIC / FIC index, resazurin, 96-well) on Sclerotinia sclerotiorum; assay type: cell-based; conditions: for MIC (A): Compound A alone
Protocol: as §1, §2, §3, §4, §5
Similarly to as described above, Resazurin was used as an indicator of growth or inhibition of growth of Sclerotinia sclerotiorum in the exemplary Synergistic Growth Inhibition Assay. In addition to the color change of the resazurin, an optical or visual examination of the microtiter well may also be made to additionally determine the presence of growth or inhibition of growth of the Sclerotinia sclerotiorum.

Botrytis cinerea = assay: Synergistic Growth Inhibition Assay (MIC / FIC index, resazurin, 96-well) on Botrytis cinerea; assay type: cell-based; conditions: Botrytis cinerea; for MIC: 48 h
Protocol: as §1, §2, §3, §4, §5
Similarly to as described above, Resazurin was used as an indicator of growth or inhibition of growth of Botrytis cinerea in the exemplary Synergistic Growth Inhibition Assay. In addition to the color change of the resazurin, an optical or visual examination of the microtiter well may also be made to additionally determine the presence of growth or inhibition of growth of the Botrytis cinerea.

Trichoplusia ni = assay: In-vitro insecticidal efficacy of Entrust SC (spinosad) with saturated and unsaturated aliphatic acids on artificial diet, Abbott and Colby formulae; assay type: in vivo, Trichoplusia ni (cabbage looper); conditions: Entrust SC 0.034 ppm ([…] spinosad); aliphatic acid (salt) 500 ppm; Abbott-corrected
Protocol: An artificial diet suitable for Trichoplusia ni (cabbage looper caterpillar) was prepared from a commercially available general purpose lepidoptera artificial diet premix (General Purpose Lepidoptera Diet available from Frontier Scientific Services, Newark, Del.) mixed in agar media and then heated to liquify the media. The liquid artificial diet media was then used to fill each well of a 96-well treatment plate with 200 uL of artificial diet media, which was allowed to solidify at room temperature and stored at approximately 4 C.
A 20 uL treatment sample of each treatment formulation was then placed on top of the solidified artificial diet media in each well of the 96 well plates and allowed to dry overnight. The following day, one neonate Trichoplusia ni (cabbage looper) larva (hatched from eggs obtained from the Natural Resource Canada insect research facility in Sault-Ste-Marie, ON, Canada) was added to each well of the plate, and their mortality rate was evaluated after 5 days, to determine the insecticidal efficacy of the Entrust® SC treatment alone, each exemplary unsaturated or saturated aliphatic acid (and salt) alone, and each combination of spinosad (as Entrust® SC) and unsaturated or saturated aliphatic acid (and salt). Each experiment contained 3 replicates.
While for SF<1, antagonism is present and for SF=1, the efficacy of the compounds is merely additive.

[1] = Fusarium oxysporum, Compound B alone, Fusarium oxysporum, 48 hours incubation, read-out: MIC (B)
[2] = Sclerotinia sclerotiorum, Compound B alone, Sclerotinia sclerotiorum, incubation period of 7 days, read-out: MIC (B)
[3] = Fusarium oxysporum, Compound B alone, Fusarium oxysporum, incubation period of 48 hours, read-out: MIC (B)
[4] = Sclerotinia sclerotiorum, Compound B alone, Sclerotinia sclerotiorum, 7 days incubation, read-out: MIC (B)
[5] = Compound B alone, 48 hours incubation
[6] = Sclerotinia sclerotiorum, read-out: MIC (B), Compound B alone, Sclerotinia sclerotiorum, 7 days incubation
[7] = Compound A alone, incubation period of 48 hours, read-out: MIC (A)
[8] = Compound A alone, incubation period of 2 days
[9] = Compound A alone, 48 hours incubation
[10] = Compound A alone, incubation period of 48 hours

Compound: CCC(CC)(CC)C(=O)O [2,2-diethylbutyric acid]
- MIC (Fusarium oxysporum; [1]): 250 µg/mL
- MIC (Sclerotinia sclerotiorum; [2]): 250 µg/mL

Compound: CC=CC=CC(=O)O [2,4-Dihexenoic acid]
- MIC (B) (Botrytis cinerea; Compound B alone, incubation period of 48 hours): 125 µg/mL

Compound: CCC(O)C(=O)O (centres unmarked) [2-hydroxybutyric acid]
- MIC (Fusarium oxysporum; [1]): 5000 µg/mL
- MIC (Fusarium oxysporum; [3]): 5000 µg/mL
- MIC (Sclerotinia sclerotiorum; [4]): 2500 µg/mL
- MIC (Sclerotinia sclerotiorum; [2]): 2500 µg/mL

Compound: CCCCC(O)C(=O)O (centres unmarked) [2-hydroxyhexanoic acid]
- MIC (Botrytis cinerea; Compound B alone, 48 hours incubation, read-out: MIC (B)): 2500 µg/mL
- MIC (Botrytis cinerea; Compound B alone, incubation period of 2 days, read-out: MIC (B)): 2500 µg/mL
- MIC (Fusarium oxysporum; [1]): 2500 µg/mL
- MIC (Fusarium oxysporum; [3]): 2500 µg/mL
- MIC (Sclerotinia sclerotiorum; [2]): 2500 µg/mL

Compound: CCCCCCC(O)C(=O)O (centres unmarked) [2-hydroxyoctanoic acid]
- MIC (Fusarium oxysporum; [1]): 625 µg/mL
- MIC (Fusarium oxysporum; [3]): 625 µg/mL
- MIC (Sclerotinia sclerotiorum; [2]): 312 µg/mL

Compound: CC(O)CC(=O)O (centres unmarked) [3-Hydroxybutyric acid, 3-hydroxybutyric acid]
- MIC (B) (Botrytis cinerea; [5]): 10000 µg/mL

Compound: CCCC(O)CC(=O)O (centres unmarked) [3-Hydroxyhexanoic acid, 3-hydroxyhexanoic acid]
- MIC (B) (Botrytis cinerea; [5]): 2500 µg/mL

Compound: CCCCC=CCC(=O)O [3-Octenoic acid, 3-octenoic acid]
- Observed Efficacy, W (%) (Trichoplusia ni): 0%

Compound: CCCC=CCC(=O)O [3-heptanoic acid]
- Observed Efficacy, W (%) (Trichoplusia ni): 4.5%

Compound: CCCCCC(O)CC(=O)O (centres unmarked) [3-hydroxyoctanoic acid]
- MIC (Fusarium oxysporum; [3]): 1250 µg/mL
- MIC (Sclerotinia sclerotiorum; [4]): 625 µg/mL
- MIC (Sclerotinia sclerotiorum; [2]): 625 µg/mL

Compound: CC(C)CC(=O)O [3-methylbutyric acid]
- MIC (Fusarium oxysporum; [1]): 625 µg/mL
- MIC (Sclerotinia sclerotiorum; [4]): 312 µg/mL

Compound: CCCC(C)CC(=O)O (centres unmarked) [3-methylhexanoic acid]
- MIC (Fusarium oxysporum; [1]): 125 µg/mL
- MIC (Sclerotinia sclerotiorum; [4]): 125 µg/mL
- MIC (Sclerotinia sclerotiorum; [2]): 125 µg/mL

Compound: CCCCCC=CCC(=O)O [3-nonenoic acid]
- Observed Efficacy, W (%) (Trichoplusia ni): 9.1%

Compound: CCC(C)CCC(=O)O (centres unmarked) [4-methylhexanoic acid]
- MIC (Botrytis cinerea; Compound B alone, incubation period of 48 hours, read-out: MIC (B)): 156 µg/mL
- MIC (Fusarium oxysporum; [1]): 156 µg/mL
- MIC (Sclerotinia sclerotiorum; [4]): 78.1 µg/mL
- MIC (Sclerotinia sclerotiorum; [2]): 78.1 µg/mL

Compound: C=CCCCC(=O)O [5-hexenoic acid]
- Observed Efficacy, W (%) (Trichoplusia ni): 0%

Compound: C=CCCCCCC(=O)O [7-octenoic acid]
- Observed Efficacy, W (%) (Trichoplusia ni): 0%

Compound: C=CCCCCCCCC(=O)O [9-Decenoic acid, 9-decenoic acid]
- Observed Efficacy, W (%) (Trichoplusia ni): 4.5%

Compound: O=C(O)CCCCCCCCCO [10-hydroxydecanoic acid]
- MIC (Botrytis cinerea; read-out: MIC (B), Compound B alone, 48 hours incubation): 500 µg/mL
- MIC (Botrytis cinerea; read-out: MIC (B), Compound B alone, incubation period of 2 days): 500 µg/mL
- MIC (Fusarium oxysporum; Fusarium oxysporum, read-out: MIC (B), Compound B alone, Fusarium oxysporum, 48 hours incubation): 1000 µg/mL
- MIC (Sclerotinia sclerotiorum; [6]): 1000 µg/mL

Compound: O=C(O)CCCCCCCCCCCO [12-hydroxydodecanoic acid]
- MIC (Sclerotinia sclerotiorum; [6]): 100 µg/mL
- MIC (Sclerotinia sclerotiorum; Sclerotinia sclerotiorum, read-out: MIC (B), Compound B alone, Sclerotinia sclerotiorum, incubation period of 7 days): 100 µg/mL

Compound: C/C=C/C=C/C(=O)[O-].[K+] [(2E,4E)-2,4 hexadienoic acid, K-salt]
- Observed Efficacy, W (%) (Trichoplusia ni): 9.1%

Compound: C/C=C/C=C/C(=O)O [(2E,4E)-2,4 hexadienoic acid]
- Observed Efficacy, W (%) (Trichoplusia ni): 4.5%

Compound: Cc1cc(C2CC2)nc(Nc2ccccc2)n1 [Cyprodinil, reference compound]
- MIC (Botrytis cinerea; [7]): 9 µg/mL

Compound: CC1COC(Cn2cncn2)(c2ccc(Oc3ccc(Cl)cc3)cc2Cl)O1 (centres unmarked) [Difenoconazole, reference compound]
- MIC (Botrytis cinerea; [7]): 25.5 µg/mL
- MIC (A) (Botrytis cinerea; [8]): 51 µg/mL
- MIC (A) (Fusarium oxysporum; [9]): 51 µg/mL

Compound: CCCCCCCCCCCC(=O)O [Dodecanoic acid, dodecanoic acid]
- Observed Efficacy, W (%) (Trichoplusia ni): 0%

Compound: N#Cc1c[nH]cc1-c1cccc2c1OC(F)(F)O2 [Fludioxonil, fludioxonil, reference compound]
- MIC (Botrytis cinerea; read-out: MIC (A), Compound A alone, incubation period of 2 days): 0.164 µg/mL
- MIC (Sclerotinia sclerotiorum; Sclerotinia sclerotiorum, read-out: MIC (A), Compound A alone, Sclerotinia sclerotiorum, incubation period of 7 days): 0.328 µg/mL

Compound: CC(C)C1C2CCC1c1c(NC(=O)c3cn(C)nc3C(F)F)cccc12 (centres unmarked) [Isopyrazam, reference compound]
- MIC (A) (Botrytis cinerea; [10]): 31.25 µg/mL

Compound: C=C(C)[C@@H]1CCC2=CC(=O)C[C@@H](C)[C@]2(C)C1 [Nootkatone (+)]
- MIC (A) (Botrytis cinerea; [10]): 125 µg/mL
- MIC (A) (Fusarium oxysporum; Compound A alone, Fusarium oxysporum, incubation period of 48 hours): 500 µg/mL
- MIC (A) (Fusarium oxysporum; Table 60, Compound A = nootkatone(+), alone or in combination with Compound B, incubation period not stated in table (either 24 hours or 4 days)): 500 µg/mL

Compound: Cc1cc(C(F)(F)F)nn1CC(=O)N1CCC(c2nc(C3=NOC(c4c(F)cccc4F)C3)cs2)CC1 (centres unmarked) [Oxathiapiprolin, reference compound]
- MIC (A) (Botrytis cinerea; [10]): 500 µg/mL

Compound: COC(=O)N(OC)c1ccccc1COc1ccn(-c2ccc(Cl)cc2)n1 [Pyraclostrobin, pyraclostrobin, reference compound]
- MIC (Botrytis cinerea; Compound A alone, incubation period of 2 days, read-out: MIC (A)): 15 µg/mL
- MIC (A) (Sclerotinia sclerotiorum; 7 days incubation): 3.75 µg/mL

Compound: CC(C)(C)C(O)(CCc1ccc(Cl)cc1)Cn1cncn1 (centres unmarked) [Tebuconazole, reference compound]
- MIC (A) (Botrytis cinerea; [8]): 112.5 µg/mL
- MIC (A) (Botrytis cinerea; [10]): 112.5 µg/mL
- MIC (A) (Fusarium oxysporum; [9]): 225 µg/mL
- MIC (Fusarium oxysporum; Fusarium oxysporum, Compound A alone, Fusarium oxysporum, incubation period of 48 hours, read-out: MIC (A)): 112 µg/mL
- MIC (A) (Sclerotinia sclerotiorum; Sclerotinia sclerotiorum, 2-fold dilutions, incubation period of 7 days): 112.5 µg/mL
